Results from patent US20030060445A1, “Nutritional formulation containing prebiotic substances” (priority 2000, published 2003).

Legend:
Format in all cases: cell-based
[1] = test system: Bacteroides; experiment: Batch culture growth of Bacteroides, titers on selective agar (Example 1); details: carbohydrate-deficient PYG batch culture, 37° C., anaerobic; supplement in place of glucose 3.0 g/L; FIG. 1
Experimental: (§1) Identical inoculua (A600∇1.0) of overnight cultures (PYG broth, 37° C., anaerobic) of each organism (Clostridia, Bacteroides, or B. lactis) were grown in batch culture (37° C., anaerobic) with constant stirring. Carbohydrate-deficient batch culture media (PYG) was supplemented with either glucose (3.0 g/L), oligofructose (FOS at 3.0 g/L), sialyllactose (3′- or 6′-sialyllactose at […]), or oligofructose plus sialyllactose (3.0 g/l and 100 mg/L, respectively). Growth was monitored at various time points (see FIG. 1) by determining the titers of the bacteria on selective agar (BIM-25 agar for Bifidobacteria and Wilkens-Chalgren agar for Clostridia and Bacteroides).

[2] = test system: Clostridia; experiment: Batch culture growth of Clostridia, titers on selective agar (Example 1); details: carbohydrate-deficient PYG batch culture, 37° C., anaerobic; supplement in place of glucose 3.0 g/L; FIG. 1
Experimental: as §1

[3] = test system: B. lactis; experiment: Media pH of Bifidobacteria batch culture (Example 3); details: PYG batch culture, 37° C., anaerobic; pH monitored at various time points; FIG. 3
Experimental: (§2) Identical inoculua (A600∇1.0) of overnight cultures (PYG broth, 37° C., anaerobic) of each organism was grown in batch culture (37° C., anaerobic) with constant stirring. Carbohydrate-deficient batch culture media (PYG) was supplemented as above. The media pH were monitored at various time points.

[4] = test system: Bacteroides; experiment: Media pH of Bacteroides batch culture (Example 3); details: PYG batch culture, 37° C., anaerobic; pH monitored at various time points; FIG. 3
Experimental: as §2

[5] = test system: Clostridia; experiment: Media pH of Clostridia batch culture (Example 3); details: PYG batch culture, 37° C., anaerobic; pH monitored at various time points; FIG. 3
Experimental: as §2

Compound	growth of Bacteroides [1]	growth of Clostridia [2]	media pH change, Bifidobacteria (B. lactis / B. infantis) culture [3]	media pH change, Bacteroides culture [4]	media pH change, Clostridia culture [5]
CC(=O)N[C@H]1[C@H]([C@H](O)[C@H](O)CO)O[C@@](O[C@H]2[C@@H](O)[C@@H](CO)O[C@@H](O[C@H]3[C@H](O)[C@@H](O)C(O)O[C@@H]3CO)[C@@H]2O)(C(=O)O)C[C@@H]1O (some centres unmarked) [3′-sialyllactose]	essentially no growth	essentially no growth	–	–	–
sialyllactose	–	–	the pH increased	the pH increased	the pH increased
